Measured values reported in PMC11388056 (Clinical and Translational Science, 2024).
Like-named read-outs stand apart in the source and are kept apart here. Marks after values point to notes of the source that are not given here. One block for each compound: values may come before it.

Experiments:
[1] = for digoxin CL/F: arithmetic mean ± SD
[2] = clinical; conditions: human, plasma, oral, geometric mean (geometric CV%), n = 20
[3] = Safety evaluation; type: in vivo, human (healthy adults); conditions: part 2; of a total of 27 TEAEs
[4] = Phase I DDI study part 1: plasma rosuvastatin PK with and without futibatinib; type: in vivo, human (healthy adults)
[5] = with itraconazole; cited from earlier work
[6] = Safety evaluation; type: in vivo, human (healthy adults); conditions: part 1, treatments pooled
[7] = for futibatinib CL/F: arithmetic mean ± SD
[8] = cited from earlier work
[9] = cited from earlier work; remark: listed apart in the source
[10] = test system: P‐glycoprotein (P‐gp); conditions: in vitro; cited from earlier work
[11] = clinical; conditions: human, plasma, 20 mg
[12] = participants with advanced solid tumors; cited from earlier work
[13] = digoxin + rosuvastatin, without futibatinib, median (min, max)
[14] = after coadministration with futibatinib vs. rosuvastatin plus digoxin
[15] = digoxin + rosuvastatin, without futibatinib, arithmetic mean ± SD, 18 participants
[16] = quinidine coadministration vs. futibatinib alone

digoxin CL/F ([1]; digoxin + rosuvastatin with futibatinib, 19 participants): 14.6 ± 5.4 ^a L/h
digoxin CL/F ([1]; digoxin + rosuvastatin, without futibatinib): 14.6 ± 4.1 L/h
digoxin T max [1, 13]: 1.0 (0.67, 2.0) h
mean digoxin renal clearance lower ([1]; digoxin administered with futibatinib vs. without): 13%
delay of median digoxin T max ([1]; following digoxin, rosuvastatin and futibatinib vs. without futibatinib): ~ 0.3 h
difference in digoxin C max and AUC ([1]; with and without futibatinib): < 20%
digoxin AUC0–120 GMR (90% CI) ([1]; with vs. without futibatinib): 103.9 (94.5–114.2) %
digoxin AUCinf GMR (90% CI) ([1]; with vs. without futibatinib): 100.2 (90.8–110.5) %
digoxin C max GMR (90% CI) ([1]; with vs. without futibatinib): 95.1 (81.1–111.5) %
digoxin CLr GMR (90% CI) ([1]; with vs. without futibatinib): 87.1 (80.8–93.9) %
AUC(0-inf) ([2]; digoxin AUCinf, digoxin + rosuvastatin, without futibatinib): 17.7 ng·h/mL
Cmax ([2]; digoxin C max, digoxin + rosuvastatin with futibatinib 20 mg once daily): 0.953 ng/mL
Compound: C[C@H]1O[C@@H](O[C@H]2[C@@H](O)C[C@H](O[C@H]3[C@@H](O)C[C@H](O[C@H]4CC[C@@]5(C)[C@H](CC[C@@H]6[C@@H]5C[C@@H](O)[C@]5(C)[C@@H](C7=CC(=O)OC7)CC[C@]65O)C4)O[C@@H]3C)O[C@@H]2C)C[C@H](O)[C@@H]1O [digoxin]

Compound: C=C[C@H]1C[N@@]2CC[C@H]1C[C@@H]2[C@@H](O)c1ccnc2ccc(OC)cc12 [quinidine]
TEAEs considered by the investigator to be related to the drug [3]: 22 events

geometric mean rosuvastatin AUCs higher [4, 14]: ≤ 18.8%
geometric mean rosuvastatin C max higher [4, 14]: 10.2%
rosuvastatin CL/F ([4]; digoxin + rosuvastatin with futibatinib, arithmetic mean ± SD): 207.2 ± 105.7 L/h
rosuvastatin CL/F [4, 15]: 247.3 ± 167.2 ^c L/h
rosuvastatin t ½ [4, 15]: 16.7 ± 8.5 ^c h
rosuvastatin T max [4, 13]: 4.0 (1.0, 6.1) h
AUC(0-inf) ([4]; human, plasma, oral, rosuvastatin AUCinf, digoxin + rosuvastatin, without futibatinib, geometric mean (geometric CV%), 18 participants): 46.9 ng·h/mL
increase in rosuvastatin C max and AUC ([4]; with vs. without futibatinib): < 20%
rosuvastatin AUC0–72 GMR (90% CI) ([4]; with vs. without futibatinib): 118.8 (107.9–130.7) %
rosuvastatin AUCinf GMR (90% CI) ([4]; with vs. without futibatinib): 113.5 (102.6–125.5) %
rosuvastatin C max GMR (90% CI) ([4]; with vs. without futibatinib): 110.2 (97.3–124.8) %
Compound: CC(C)c1nc(N(C)S(C)(=O)=O)nc(-c2ccc(F)cc2)c1/C=C/[C@@H](O)C[C@@H](O)CC(=O)O [rosuvastatin]

Compound: CCN1C(=O)N(c2c(F)c(OC)cc(OC)c2F)Cc2cnc3[nH]c(CN4CCOCC4)cc3c21 [pemigatinib]
increase in pemigatinib AUC [5]: 88%
increase in pemigatinib C max [5]: 17%

Compound: C=CC(=O)N1CC[C@H](n2nc(C#Cc3cc(OC)cc(OC)c3)c3c(N)ncnc32)C1 [futibatinib]
TEAE diarrhea [6]: 80%
TEAE increased blood phosphate [6]: 75%
futibatinib CL/F ([7]; futibatinib + quinidine, n = 15): 34.3 ± 13.2 L/h
futibatinib AUCinf ([7]; futibatinib + quinidine, geometric mean (geometric CV%), n = 15): 627.0 (41.6) ng*h/mL
futibatinib CL/F ([7]; futibatinib alone, n = 24): 43.1 ± 40.8 L/h
increase in futibatinib C max and AUC [7, 16]: < 20%
magnitude of increase in futibatinib AUC0–24 [7, 16]: 16%
magnitude of increase in futibatinib AUCinf (exposure) [7, 16]: 17%
magnitude of increase in futibatinib C max [7, 16]: 8%
futibatinib AUC0–24 GMR (90% CI) ([7]; with vs. without quinidine): 116.4 (95.4–142.1) %
futibatinib AUCinf GMR (90% CI) ([7]; with vs. without quinidine): 117.0 (96.0–142.7) %
futibatinib C max GMR (90% CI) ([7]; with vs. without quinidine): 108.0 (90.9–128.3) %
difference in futibatinib exposure ([8]; administered with or without lansoprazole): no significant differences
futibatinib bioavailability lower ([8]; fed versus fasted conditions, healthy participants): 11.2%
futibatinib exposure increased ([9]; coadministered with itraconazole (dual P‐gp and CYP3A inhibitor)): 41%–51%
futibatinib exposure decreased ([9]; coadministered with rifampin (dual P‐gp and CYP3A inducer)): 53%–64%
substrate of P‐gp [10]: substrate
Vd/F ([11]; oral): 132 ± 72.2 L
half-life ([11]; oral): 2.5 ± 0.83 h
AUC(0-inf) ([11]; oral, futibatinib AUCinf, futibatinib alone, geometric mean (geometric CV%), n = 24): 582 ng·h/mL
AUC(0-t) ([11]; po): 580 ng·h/mL
terminal elimination half‐life (t ½) [12]: approximately 3 h
